# According to paper PMC2566891 (Nucleic Acids Research, 2008):
# Test system: 14-3-3
# Assay: Binding of p53 peptides to 14-3-3, isoform not given
# Conditions: isoform not specified; wild-type p53CT tested up to 200 µM; pS392 by AUC
substance,measurement,value
"WT TC (293–393): wild-type tetramerization plus C-terminal domains of p53 (293–393), semi-synthetic",binding to 14-3-3 (in words),very weak binding
